Results taken from patent US20230330254A1 (Regeneron Pharmaceuticals, Inc., priority 2022, published 2023).
Read-outs that look alike come from different tables or passages of the source. Where a SMILES comes first, the peptide text is derived from it. [ ]: non-standard residue; d: D form. The star is where a group is joined. Bip(2'-Et,4'-O(CH2)4NH2) = CCc1cc(OCCCCN)ccc1-c1ccc(C[C@H](N)C(=O)O)cc1; Malonyl(2,2-Me2,histaminyl) = CC(C)(C(=O)NCCc1cnc[nH]1)C(=O)*; Nva(5-(3,5-Me2Ph)) = Cc1cc(C)cc(CCC[C@H](N)C(=O)O)c1; Ala(1H-tetrazol-5-yl) = N[C@@H](Cc1nnn[nH]1)C(=O)O; αMePhe(2-F) = C[C@](N)(Cc1ccccc1F)C(=O)O

Legend:
[1] = target: T1, human GLP1R (Homo sapiens, UniProt P43220); test: Luciferase reporter assay, HEK293/CRE-Luc/hGLP1R (Example 17); format: cell-based; parameters: engineered to express full-length human GLP1R, cynomolgus GLP1R; expressed in transfected cells; host or cells: HEK293/CRE-Luc; details: HEK293/CRE-Luc/hGLP1R; for EC50: payloads and linker-payloads, experiments A-E, M2361 repeated in each, read-out: EC50
Procedure, shortened: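 HEK293 cells carrying a CRE-driven firefly luciferase reporter were exposed to 3-fold serial dilutions of payloads or linker-payloads (12 points, 0.2% DMSO final) for 4–6 h, then luminescence was read. EC50 came from a four-parameter logistic fit; S/N is top RLU over untreated wells, and relative potency and S/N are referenced to M2361.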

[2] = target: T1, human GLP1R; test: Luciferase reporter assay, HEK293/CRE-Luc/hGLP1R cells (Example 11); format: cell-based; parameters: engineered to express full-length human GLP1R, cynomolgus GLP1R; expressed in transfected cells; host or cells: HEK293/CRE-Luc; details: Table 11; Experiment A
[3] = Plasma stability of payloads and linker-payloads, human plasma; format: in vitro ADME
Procedure, shortened: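 Pooled plasma, pH adjusted to 7.4±0.1 where needed, spiked to 2 μM compound (duplicate) and incubated at 37 °C. At each time point, protein was precipitated with ACN/MeOH stop solution containing internal standards; remaining compound quantified in supernatant by LC-MS/MS.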

[4] = ATDCs and references (Table 27)
[5] = highest RLU / RLU of untreated wells
[6] = relative to M2361 of the same experiment

T1 sequence (P43220 24-463): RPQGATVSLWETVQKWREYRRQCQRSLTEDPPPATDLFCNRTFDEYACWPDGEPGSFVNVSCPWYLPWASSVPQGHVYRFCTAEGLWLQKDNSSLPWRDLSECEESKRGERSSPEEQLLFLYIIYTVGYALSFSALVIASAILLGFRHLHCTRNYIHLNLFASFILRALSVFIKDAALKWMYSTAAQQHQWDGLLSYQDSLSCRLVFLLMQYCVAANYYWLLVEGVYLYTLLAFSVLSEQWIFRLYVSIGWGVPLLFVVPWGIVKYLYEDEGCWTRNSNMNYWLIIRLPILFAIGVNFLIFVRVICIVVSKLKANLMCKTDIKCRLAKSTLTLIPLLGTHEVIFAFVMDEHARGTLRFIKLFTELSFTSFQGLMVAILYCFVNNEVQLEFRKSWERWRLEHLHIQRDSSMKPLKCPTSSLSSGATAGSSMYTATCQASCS

Structure (SMILES)	Relative Potency (% M2361 EC50) [1, 4]	Relative Signal:Noise (% M2361) [1, 4]	S/N [1, 4]	S/N [1, 5]	EC50 [1]	Relative Potency (% M2361 EC50) [1, 6]	Relative Signal:Noise (% M2361) [1, 6]	EC50 [2]	HEK293/CRE-LUC/hGLP1R Relative Potency (% P8 EC50) [2]	HEK293/CRE-LUC/hGLP1R S/N [2]	half-life at 2 µM ([3]; plasma, pH 7.4, tested time A (1 day per footnote), 2 μM, 37° C., read-out: Human plasma stability assay T½ (converted))	HEK293/CRE-LUC/hGLP1R Relative Signal:Noise (% P8) [2]	half-life at 2 µM ([3]; pooled plasma, pH 7.4, Table 5C, read-out: Plasma Stability Human T½)	half-life at 2 µM ([3]; pooled plasma, pH 7.4, tested time C (3 days), 2 μM, 37° C., read-out: Human plasma stability assay T½ (converted))
CCc1cc(OCCCCn2cc(COCCOCCOCCOCCOCCOCCOCCOCCN)nn2)ccc1-c1ccc(C[C@H](NC(=O)[C@H](CC(=O)O)NC(=O)[C@H](CO)NC(=O)[C@@H](NC(=O)[C@](C)(Cc2ccccc2F)NC(=O)[C@@H](NC(=O)CNC(=O)[C@H](Cc2nn[nH]n2)NC(=O)C(C)(C)C(=O)NCCc2cnc[nH]2)[C@@H](C)O)[C@@H](C)O)C(=O)N[C@@H](CCCc2cc(C)cc(C)c2)C(N)=O)cc1 [M3190]	44.0%	96.4%	62.0	74.5	0.0161 nM	33.1%	113.3%	–	–	–	–	–	–	–
CCc1cc(OCCCCN)ccc1-c1ccc(C[C@H](NC(=O)[C@H](CC(=O)O)NC(=O)[C@H](CO)NC(=O)[C@@H](NC(=O)[C@](C)(Cc2ccccc2F)NC(=O)[C@@H](NC(=O)CNC(=O)[C@H](Cc2nn[nH]n2)NC(=O)C(C)(C)C(=O)NCCc2cnc[nH]2)[C@@H](C)O)[C@@H](C)O)C(=O)N[C@@H](CCCc2cc(C)cc(C)c2)C(N)=O)cc1 [P9, (8S,14S,17S,20S,23S,26S)-8-((2H-tetrazol-5-yl)methyl)-26-(((S)-1-(((S)-1-amino-5-(3,5-dimethylphenyl)-1-oxopentan-2-yl)amino)-3-(4′-(4-aminobutoxy)-2′-ethyl-[1,1′-biphenyl]-4-yl)-1-oxopropan-2-yl)carbamoyl)-17-(2-fluorobenzyl)-14,20-bis((R)-1-hydroxyethyl)-23-(hydroxymethyl)-1-(1H-imidazol-5-yl)-5,5,17-trimethyl-4,6,9,12,15,18,21,24-octaoxo-3,7,10,13,16,19,22,25-octaazaoctacosan-28-oic acid] ({Malonyl(2,2-Me2,histaminyl)}-[Ala(1H-tetrazol-5-yl)]GT[αMePhe(2-F)]TSD[Bip(2'-Et,4'-O(CH2)4NH2)][Nva(5-(3,5-Me2Ph))]-NH2)	–	–	–	75.2	0.00397 nM	133.8%	114.3%	0.00397 nM	133.8%	75.2	> 57.8 h	–	–	–
CCc1cc(OCCCCn2cc(COCCOCCOCCOCCOCCOCCOCCOCCN)nn2)ccc1-c1ccc(C[C@H](NC(=O)[C@H](CC(=O)O)NC(=O)[C@H](CO)NC(=O)[C@@H](NC(=O)C(C)(Cc2ccccc2F)NC(=O)[C@@H](NC(=O)CNC(=O)[C@H](Cc2nn[nH]n2)NC(=O)C(C)(C)C(=O)NCCc2cnc[nH]2)[C@@H](C)O)[C@@H](C)O)C(=O)N[C@@H](CCCc2cc(C)cc(C)c2)C(N)=O)cc1 (stereo partly drawn) [LP11, NH2-PEG8-triazole-P8]	–	–	–	–	–	–	–	0.0161 nM	33.1%	74.5	–	113.3%	> 168 h	> 173 h
